Tests used:
[1] = pH of excipient solutions and of crushed EKB-569 tablet slurries; type: physicochemical; conditions: for pH at 0.1% excipient, Excipient Solution: 0.1% solution/suspension of basic excipient; for pH at 0.5% excipient, Excipient Solution: 0.5% solution/suspension of basic excipient; for pH at 1% excipient, Excipient Solution: 1% solution/suspension of basic excipient; for pH at 5% excipient, Excipient Solution: 5% solution/suspension of basic excipient
Description: The data in Table 3 supported testing improved stability of a pharmaceutical composition by lowering the pH of the pharmaceutical composition. […]

[2] = Solid state stability for EKB-569 drug substance at 56° C./75% RH; type: physicochemical; conditions: for % EKB-569 remaining / Total impurities: drug substance, 56° C./75% RH
Method: A study was conducted at 56° C./75% RH for 2 weeks. The samples were filled into 2-ml flame sealed Kimble score-break ampules.

[3] = Stability of EKB-569 solution (degradation rate constant in buffers); type: physicochemical; conditions: for EKB-569 degradation rate constant: 0.2 mg/mL in 0.02 M buffer with 50% Acetonitrile
[4] = Method: Compositions of tablets containing 0.5% and 0.1% of these excipients remain the same. Quantity of microcrystalline cellulose was adjusted to allow for the changes in the amounts of basic excipients. Tablets were manufactured using granulation.
Tablets were stored at 40° C./75% RH for 1 month.

SMILES | pH at 0.1% excipient, Excipient Solution [1] | pH at 0.5% excipient, Excipient Solution [1] | pH at 1% excipient, Excipient Solution [1] | pH at 5% excipient, Excipient Solution [1] | also measured
N=C(N)NCCC[C@H](N)C(=O)O [Arginine] | 10.18 | 10.57 | 10.91 | 11.23 | 
O=C([O-])[O-].[Ca+2] [Calcium carbonate] | 8.95 | 8.93 | 9.02 | 9.12 | 
O=C([O-])CN(CCN(CC(=O)[O-])CC(=O)[O-])CC(=O)[O-].[Na+].[Na+].[Na+].[Na+] [EDTA, tetra sodium] | 10.55 | 10.84 | 10.94 | 10.75 | 
CCOc1cc2ncc(C#N)c(Nc3ccc(F)c(Cl)c3)c2cc1NC(=O)C=CCN(C)C [EKB-569, 4-dimethylamino-but-2-enoic acid [4-(3-chloro-4-fluoro-phenylamino)-3-cyano-7-ethoxy-quinolin-6-yl]-amide] |  |  |  |  | stability in the solid state ([2]; 56° C./75% RH for 2 weeks): chemical instability in the solid state; % EKB-569 remaining ([2]; 3 Days): 98.1%; Total impurities ([2]; 3 Days): 1.1%; % EKB-569 remaining ([2]; 7 Days): 97.7%; Total impurities ([2]; 7 Days): 1.68%; % EKB-569 remaining ([2]; 14 Days): 97.1%; Total impurities ([2]; 14 Days): 2.62%; % EKB-569 remaining ([2]; Initial): 99.1%; Total impurities ([2]; Initial): 0.78%; EKB-569 degradation rate constant ([3]; pH 1.2 (HCl), 80° C.): 0.0013 h⁻¹; EKB-569 degradation rate constant ([3]; pH 3.0 (Phoshphate), 80° C.): 0.0003 h⁻¹; EKB-569 degradation rate constant ([3]; pH 5.0 (Acetate), 56° C.): 0.0008 h⁻¹; EKB-569 degradation rate constant ([3]; pH 5.0 (Acetate), 80° C.): 0.0113 h⁻¹; EKB-569 degradation rate constant ([3]; pH 7.4 (Phosphate), 56° C.): 0.003 h⁻¹; EKB-569 degradation rate constant ([3]; pH 7.4 (Phosphate), 80° C.): 0.0235 h⁻¹; EKB-569 degradation rate constant ([3]; pH 9 (Glycine), 56° C.): 0.0031 h⁻¹; EKB-569 degradation rate constant ([3]; pH 9 (Glycine), 80° C.): 0.0229 h⁻¹; stability in solution as a function of pH ([3]; pH range 1.2-9, 56° C. and 80° C.): more stable in acidic solution
O=C([O-])O.[Na+] [Sodium bicarbonate] | 8.69 | 8.56 | 8.34 | 8.18 | 
O=C([O-])[O-].[Na+].[Na+] [Sodium carbonate] | 10.99 | 11.21 | 11.31 | 11.5 | 
NC(CO)(CO)CO [Tromethamine] | 9.98 | 9.99 | 10.51 | 10.87 | 
OC[C@H]1O[C@@H](O[C@H]2[C@H](O)[C@@H](O)C(O)O[C@@H]2CO)[C@H](O)[C@@H](O)[C@H]1O (stereo partly shown) [lactose] |  |  |  |  | effect on stability of EKB-569 pharmaceutical composition [4]: no effect on stability
